Earlier results in US11439617B2, “Polymeric compositions of monomethyl fumarate and their use in treating relapsing remitting multiple sclerosis and psoriasis” (priority 2017, dated 2022).
Structures can show the parent of a compound that is named as a salt.

Conditions: in vivo

Tmax: about 2.5 hours
half-life in circulation: 36 h
SMILES: COC(=O)/C=C/C(=O)O [MMF, monomethyl fumarate]
